Patent US4032625A, “Bone-seeking technetium-99m complex” (priority 1975, dated 1977)
Where two headings read alike, the source gives them in different places.

Conditions: 2 Hrs

Substance: 99m technetium-tin-1-amino-ethane-1,1-diphosphonate complex [^99m Tc-Sn-AEDP]
- Ratio of 99mTc complex/85Sr: Ave Bone (0.01 mg/kg): 0.735
- Ratio of 99mTc complex/85Sr: Blood (0.01 mg/kg): 0.406
- Ratio of 99mTc complex/85Sr: Femur (0.01 mg/kg): 0.720
- Ratio of 99mTc complex/85Sr: Kidneys (0.01 mg/kg): 4.99
- Ratio of 99mTc complex/85Sr: Liver (0.01 mg/kg): 3.00
- Ratio of 99mTc complex/85Sr: Marrow (0.01 mg/kg): 1.27
- Ratio of 99mTc complex/85Sr: Muscle (0.01 mg/kg): 0.338
- Ratio of 99mTc complex/85Sr: Pelvis (0.01 mg/kg): 0.794
- Ratio of 99mTc complex/85Sr: Spine (0.01 mg/kg): 0.689
- Ratio of 99mTc complex/85Sr: Tibia (0.01 mg/kg): 0.710
- Tc/Sr (last line of distribution table) (0.01 mg/kg): 0.736
- % Dose in Whole Organ: Blood (0.01 mg/kg AEDP): 1.18 % Dose
- % Dose in Whole Organ: Kidneys (0.01 mg/kg AEDP): 1.59 % Dose
- % Dose in Whole Organ: Liver (0.01 mg/kg AEDP): 1.69 % Dose
- % Dose in Whole Organ: Marrow (0.01 mg/kg AEDP): 0.657 % Dose
- % Dose in Whole Organ: Muscle (0.01 mg/kg AEDP): 0.988 % Dose
- % Dose in Whole Organ: W. Femur (0.01 mg/kg AEDP): 2.34 % Dose
- % Dose in Whole Organ: W. Tibia (0.01 mg/kg AEDP): 1.96 % Dose
- % Dose/1% Body weight: Blood (0.01 mg/kg AEDP): 0.168 % Dose/1% Body weight
- % Dose/1% Body weight: Bone Ave (0.01 mg/kg AEDP): 7.60 % Dose/1% Body weight
- % Dose/1% Body weight: Femur (0.01 mg/kg AEDP): 7.54 % Dose/1% Body weight
- % Dose/1% Body weight: Kidneys (0.01 mg/kg AEDP): 2.72 % Dose/1% Body weight
- % Dose/1% Body weight: Liver (0.01 mg/kg AEDP): 0.617 % Dose/1% Body weight
- % Dose/1% Body weight: Marrow (0.01 mg/kg AEDP): 0.300 % Dose/1% Body weight
- % Dose/1% Body weight: Muscle (0.01 mg/kg AEDP): 0.037 % Dose/1% Body weight
- % Dose/1% Body weight: Pelvis (0.01 mg/kg AEDP): 8.53 % Dose/1% Body weight
- % Dose/1% Body weight: Spine (0.01 mg/kg AEDP): 6.20 % Dose/1% Body weight
- % Dose/1% Body weight: Tibia (0.01 mg/kg AEDP): 8.13 % Dose/1% Body weight
- % Dose: Urine (0.01 mg/kg AEDP): 48.39 % Dose
- Ratio of 99mTc complex/85Sr: Ave Bone (0.05 mg/kg): 0.683
- Ratio of 99mTc complex/85Sr: Blood (0.05 mg/kg): 0.409
- Ratio of 99mTc complex/85Sr: Femur (0.05 mg/kg): 0.687
- Ratio of 99mTc complex/85Sr: Kidneys (0.05 mg/kg): 3.30
- Ratio of 99mTc complex/85Sr: Liver (0.05 mg/kg): 1.32
- Ratio of 99mTc complex/85Sr: Marrow (0.05 mg/kg): 1.18
- Ratio of 99mTc complex/85Sr: Muscle (0.05 mg/kg): 0.236
- Ratio of 99mTc complex/85Sr: Pelvis (0.05 mg/kg): 0.684
- Ratio of 99mTc complex/85Sr: Spine (0.05 mg/kg): 0.675
- Ratio of 99mTc complex/85Sr: Tibia (0.05 mg/kg): 0.681
- Tc/Sr (last line of distribution table) (0.05 mg/kg): 0.680
- % Dose in Whole Organ: Blood (0.05 mg/kg AEDP): 1.01 % Dose
- % Dose in Whole Organ: Kidneys (0.05 mg/kg AEDP): 1.13 % Dose
- % Dose in Whole Organ: Liver (0.05 mg/kg AEDP): 0.806 % Dose
- % Dose in Whole Organ: Marrow (0.05 mg/kg AEDP): 0.549 % Dose
- % Dose in Whole Organ: Muscle (0.05 mg/kg AEDP): 1.20 % Dose
- % Dose in Whole Organ: W. Femur (0.05 mg/kg AEDP): 2.41 % Dose
- % Dose in Whole Organ: W. Tibia (0.05 mg/kg AEDP): 2.14 % Dose
- % Dose/1% Body weight: Blood (0.05 mg/kg AEDP): 0.144 % Dose/1% Body weight
- % Dose/1% Body weight: Bone Ave (0.05 mg/kg AEDP): 8.39 % Dose/1% Body weight
- % Dose/1% Body weight: Femur (0.05 mg/kg AEDP): 8.63 % Dose/1% Body weight
- % Dose/1% Body weight: Kidneys (0.05 mg/kg AEDP): 1.83 % Dose/1% Body weight
- % Dose/1% Body weight: Liver (0.05 mg/kg AEDP): 0.176 % Dose/1% Body weight
- % Dose/1% Body weight: Marrow (0.05 mg/kg AEDP): 0.250 % Dose/1% Body weight
- % Dose/1% Body weight: Muscle (0.05 mg/kg AEDP): 0.028 % Dose/1% Body weight
- % Dose/1% Body weight: Pelvis (0.05 mg/kg AEDP): 7.82 % Dose/1% Body weight
- % Dose/1% Body weight: Spine (0.05 mg/kg AEDP): 7.80 % Dose/1% Body weight
- % Dose/1% Body weight: Tibia (0.05 mg/kg AEDP): 9.30 % Dose/1% Body weight
- % Dose: Urine (0.05 mg/kg AEDP): 44.21 % Dose
- Ratio of 99mTc complex/85Sr: Ave Bone (0.1 mg/kg): 0.716
- Ratio of 99mTc complex/85Sr: Blood (0.1 mg/kg): 0.409
- Ratio of 99mTc complex/85Sr: Femur (0.1 mg/kg): 0.714
- Ratio of 99mTc complex/85Sr: Kidneys (0.1 mg/kg): 2.94
- Ratio of 99mTc complex/85Sr: Liver (0.1 mg/kg): 0.490
- Ratio of 99mTc complex/85Sr: Marrow (0.1 mg/kg): 0.621
- Ratio of 99mTc complex/85Sr: Muscle (0.1 mg/kg): 0.205
- Ratio of 99mTc complex/85Sr: Pelvis (0.1 mg/kg): 0.725
- Ratio of 99mTc complex/85Sr: Spine (0.1 mg/kg): 0.705
- Ratio of 99mTc complex/85Sr: Tibia (0.1 mg/kg): 0.721
- Tc/Sr (last line of distribution table) (0.1 mg/kg): 0.717
- % Dose in Whole Organ: Blood (0.1 mg/kg AEDP): 0.96 % Dose
- % Dose in Whole Organ: Kidneys (0.1 mg/kg AEDP): 0.913 % Dose
- % Dose in Whole Organ: Liver (0.1 mg/kg AEDP): 0.309 % Dose
- % Dose in Whole Organ: Marrow (0.1 mg/kg AEDP): 0.211 % Dose
- % Dose in Whole Organ: Muscle (0.1 mg/kg AEDP): 1.46 % Dose
- % Dose in Whole Organ: W. Femur (0.1 mg/kg AEDP): 2.38 % Dose
- % Dose in Whole Organ: W. Tibia (0.1 mg/kg AEDP): 2.18 % Dose
- % Dose/1% Body weight: Blood (0.1 mg/kg AEDP): 0.137 % Dose/1% Body weight
- % Dose/1% Body weight: Bone Ave (0.1 mg/kg AEDP): 7.51 % Dose/1% Body weight
- % Dose/1% Body weight: Femur (0.1 mg/kg AEDP): 7.93 % Dose/1% Body weight
- % Dose/1% Body weight: Kidneys (0.1 mg/kg AEDP): 1.28 % Dose/1% Body weight
- % Dose/1% Body weight: Liver (0.1 mg/kg AEDP): 0.083 % Dose/1% Body weight
- % Dose/1% Body weight: Marrow (0.1 mg/kg AEDP): 0.096 % Dose/1% Body weight
- % Dose/1% Body weight: Muscle (0.1 mg/kg AEDP): 0.034 % Dose/1% Body weight
- % Dose/1% Body weight: Pelvis (0.1 mg/kg AEDP): 6.24 % Dose/1% Body weight
- % Dose/1% Body weight: Spine (0.1 mg/kg AEDP): 7.36 % Dose/1% Body weight
- % Dose/1% Body weight: Tibia (0.1 mg/kg AEDP): 8.50 % Dose/1% Body weight
- % Dose: Urine (0.1 mg/kg AEDP): 38.8 % Dose
- Ratio of 99mTc complex/85Sr: Ave Bone (0.5 mg/kg): 0.644
- Ratio of 99mTc complex/85Sr: Blood (0.5 mg/kg): 0.280
- Ratio of 99mTc complex/85Sr: Femur (0.5 mg/kg): 0.628
- Ratio of 99mTc complex/85Sr: Kidneys (0.5 mg/kg): 2.47
- Ratio of 99mTc complex/85Sr: Liver (0.5 mg/kg): 0.459
- Ratio of 99mTc complex/85Sr: Marrow (0.5 mg/kg): 0.500
- Ratio of 99mTc complex/85Sr: Muscle (0.5 mg/kg): 0.140
- Ratio of 99mTc complex/85Sr: Pelvis (0.5 mg/kg): 0.692
- Ratio of 99mTc complex/85Sr: Spine (0.5 mg/kg): 0.614
- Ratio of 99mTc complex/85Sr: Tibia (0.5 mg/kg): 0.632
- Tc/Sr (last line of distribution table) (0.5 mg/kg): 0.645
- % Dose in Whole Organ: Blood (0.5 mg/kg AEDP): 1.38 % Dose
- % Dose in Whole Organ: Kidneys (0.5 mg/kg AEDP): 1.11 % Dose
- % Dose in Whole Organ: Liver (0.5 mg/kg AEDP): 0.216 % Dose
- % Dose in Whole Organ: Marrow (0.5 mg/kg AEDP): 0.23 % Dose
- % Dose in Whole Organ: Muscle (0.5 mg/kg AEDP): 0.883 % Dose
- % Dose in Whole Organ: W. Femur (0.5 mg/kg AEDP): 1.74 % Dose
- % Dose in Whole Organ: W. Tibia (0.5 mg/kg AEDP): 1.55 % Dose
- % Dose/1% Body weight: Blood (0.5 mg/kg AEDP): 0.197 % Dose/1% Body weight
- % Dose/1% Body weight: Bone Ave (0.5 mg/kg AEDP): 6.96 % Dose/1% Body weight
- % Dose/1% Body weight: Femur (0.5 mg/kg AEDP): 6.59 % Dose/1% Body weight
- % Dose/1% Body weight: Kidneys (0.5 mg/kg AEDP): 2.11 % Dose/1% Body weight
- % Dose/1% Body weight: Liver (0.5 mg/kg AEDP): 0.079 % Dose/1% Body weight
- % Dose/1% Body weight: Marrow (0.5 mg/kg AEDP): 0.104 % Dose/1% Body weight
- % Dose/1% Body weight: Muscle (0.5 mg/kg AEDP): 0.021 % Dose/1% Body weight
- % Dose/1% Body weight: Pelvis (0.5 mg/kg AEDP): 7.93 % Dose/1% Body weight
- % Dose/1% Body weight: Spine (0.5 mg/kg AEDP): 6.05 % Dose/1% Body weight
- % Dose/1% Body weight: Tibia (0.5 mg/kg AEDP): 7.27 % Dose/1% Body weight
- % Dose: Urine (0.5 mg/kg AEDP): 48.85 % Dose
